Here are results for 20 molecules from patent US20260363243A1 (priority 2022, published 2026).

Where two headings read alike, the source gives them in different places.

The test system of test [1] is cucumber downy mildew. The settings on record: Table 3, data from Li, J. L. et al. 2020, cited from earlier work.
In the next test the test system is Phytophthora capsici. The experiment in a line: In vitro inhibition of hypha growth of oomycete pathogens (microplate, OD595): Phytophthora capsici. It counts as cell-based.
Test [2] relates to cucumber downy mildew. The experiment in a line: Activity in vivo for inhibiting cucumber downy mildew (potting method, greenhouse).
Description: The test and investigation method refers to a SOP-SC-1098 cucumber downy mildew potting method in the fungicide section of Standard operation Specification for testing biological Activity of pesticides written by Kang Zhuo and Gu Baogen.
A further test concerns Phytophthora nicotianae. Description: In vitro inhibition of hypha growth of oomycete pathogens (microplate, OD595): Phytophthora nicotianae. It counts as cell-based.
The next test has as its system Phytophthora infestans. Description: microbe, parasite or virus in culture. Type of test: cell-based.
In another test the test system is Phytophthora sojae. Description: In vitro inhibition of hypha growth of oomycete pathogens (microplate, OD595): Phytophthora sojae. Type of test: cell-based.
[3] abbreviates: read-out: inhibitory activity on hypha growth.
The mark [4] stands for this setting: 0.02 mg/L, re-screening, Table 2.
The mark [5] stands for this setting: 0.078 mg/L, re-screening, Table 2.
Where [6] appears, read: 0.312 mg/L, re-screening, Table 2.
Where [7] appears, read: 1.25 mg/L, re-screening, Table 2.
[8] abbreviates: Phytophthora nicotianae, read-out: inhibitory activity on hypha growth.

As to `O=C(CCO)N1CCC(c2nc(C3=NOC(c4c(F)cccc4F)C3)cs2)CC1` (stereo not drawn) [comparative 4], the Control effect entry in the test with cucumber downy mildew [1] (0.625 mg/L) is on record as “E (0% ≤ E < 45%)”; in the test with cucumber downy mildew [1] (2.5 mg/L), “E (0% ≤ E < 45%)”; in the test on cucumber downy mildew [1] (10 mg/L) it was “D (45% ≤ D < 60%)”.

With `O=C(CC1CCCCC1)N1CCC(c2nc(C3=NOC(c4c(F)cccc4F)C3)cs2)CC1` (stereo not drawn) [comparative 5], the Control effect entry in the test on cucumber downy mildew [1] (0.625 mg/L) is recorded as “E (0% ≤ E < 45%)”; with cucumber downy mildew [1] (2.5 mg/L), “D (45% ≤ D < 60%)”; with cucumber downy mildew [1] (10 mg/L) it was “A (90% ≤ A ≤ 100%)”.

As to `COC(CC(=O)N1CCC(c2nc(C3=NOC(c4c(F)cccc4F)C3)cs2)CC1)OCC(F)(F)F` (stereo not drawn) [II-18], the “inhibitory activity compared with OXA” value in the test on Phytophthora capsici (5, 0.5 and 0.05 mg/L, in words) was “comparable to that of the control agent OXA”; with Phytophthora nicotianae (Pythium nicotianae, 5, 0.5 and 0.05 mg/L, in words), “comparable to that of the control agent OXA”; in the test with Phytophthora infestans (5, 0.5 and 0.05 mg/L, in words), “comparable to that of the control agent OXA”; with Phytophthora sojae (5, 0.5 and 0.05 mg/L, in words) it was “comparable to that of the control agent OXA”. Also, the inhibition at 0.005 µg/mL in the test on Phytophthora capsici (setting [3]) fell in the range of 90 to 100%; in the test with Phytophthora nicotianae (setting [8]), 75 to 90%; in the test on Phytophthora infestans (setting [3]), 90 to 100%; in the test with Phytophthora sojae (setting [3]), 90 to 100%. For the same molecule, the inhibition at 0.05 µg/mL with Phytophthora capsici (setting [3]), in the test with Phytophthora nicotianae (setting [8]), in the test with Phytophthora infestans (setting [3]) and in the test with Phytophthora sojae (setting [3]) was 90 to 100% in each case. Moreover, the inhibition at 0.5 µg/mL in the test with Phytophthora capsici (setting [3]), in the test with Phytophthora nicotianae (setting [8]), with Phytophthora infestans (setting [3]) and in the test with Phytophthora sojae (setting [3]) was 90 to 100% each time. Further, the inhibition at 5 µg/mL with Phytophthora capsici (setting [3]), with Phytophthora nicotianae (setting [8]), in the test on Phytophthora infestans (setting [3]) and in the test on Phytophthora sojae (setting [3]) was 90 to 100% each time. Also, the “efficacy compared with OXA” value in the test with cucumber downy mildew [2] (0.005 mg/L, in words) is listed as “comparable to that of the control agent OXA”. Further, the Control effect entry in the test with cucumber downy mildew [2] (0.005 mg/L, re-screening, Table 2) is “A (90%≤A≤100%)”; in the test on cucumber downy mildew [2] (setting [4]), “A (90%≤A≤100%)”; with cucumber downy mildew [2] (0.078 mg/L, re-screening), no less than 90%; in the test on cucumber downy mildew [2] (setting [5]), “A (90%≤A≤100%)”; in the test on cucumber downy mildew [2] (setting [6]), “A (90%≤A≤100%)”; with cucumber downy mildew [2] (0.625 mg/L, Table 3), “A (90% ≤ A ≤ 100%)”. Further, the Control effect result in the test with cucumber downy mildew [2] (1.25 mg/L, Table 1) was “A (90%≤A≤100%)”; with cucumber downy mildew [2] (setting [7]), “A (90%≤A≤100%)”; with cucumber downy mildew [2] (2.5 mg/L, Table 3) it was “A (90% ≤ A ≤ 100%)”; in the test with cucumber downy mildew [2] (5 mg/L, Table 1), “A (90%≤A≤100%)”; with cucumber downy mildew [2] (10 mg/L, Table 3), “A (90% ≤ A ≤ 100%)”; with cucumber downy mildew [2] (20 mg/L, Table 1) it was “A (90%≤A≤100%)”. The “efficacy compared with dimethomorph and cyazofamid” value in the test with cucumber downy mildew [2] (0.078 mg/L, in words) was “superior to that of dimethomorph and cyazofamid”. For the same molecule, the “efficacy compared with oxathiapiprolin” value in the test with cucumber downy mildew [2] (0.078 mg/L, in words) was “equivalent to that of oxathiapiprolin at the same concentration”. In addition, the bactericidal activity entry in the test on cucumber downy mildew [2] (re-screening, in words) is “excellent bactericidal activity”.

Take `O=C(CN1CCCC(O)C1)N1CCC(c2nc(C3=NOC(c4c(F)cccc4F)C3)cs2)CC1` (stereo not drawn) [comparative 7]: the Control effect entry in the test with cucumber downy mildew [1] (0.625 mg/L), in the test on cucumber downy mildew [1] (2.5 mg/L) and with cucumber downy mildew [1] (10 mg/L) was “E (0% ≤ E < 45%)” throughout.

On to `CC(C)CCC(=O)N1CCC(c2nc(C3=NOC(c4c(F)cccc4F)C3)cs2)CC1` (stereo not drawn) [comparative 1], for which the Control effect entry with cucumber downy mildew [1] (0.625 mg/L) is listed as “E (0% ≤ E < 45%)”; in the test on cucumber downy mildew [1] (2.5 mg/L) it was “B (75% ≤ B < 90%)”; with cucumber downy mildew [1] (10 mg/L) it was “B (75% ≤ B < 90%)”.

Take `O=C(CN1CCCCC1)N1CCC(c2nc(C3=NOC(c4c(F)cccc4F)C3)cs2)CC1` (stereo not drawn) [comparative 6]: the Control effect entry with cucumber downy mildew [1] (0.625 mg/L), in the test with cucumber downy mildew [1] (2.5 mg/L) and in the test on cucumber downy mildew [1] (10 mg/L) was “E (0% ≤ E < 45%)” in each case.

Consider `CO/C=C(\C)C(=O)N1CCC(c2nc(C3=NOC(c4c(F)cccc4F)C3)cs2)CC1` (stereo not drawn) [Compound I-7], for which the Control effect entry was “B (75%≤B<90%)” in the test on cucumber downy mildew [2] (5 mg/L, Table 1) and “A (90%≤A≤100%)” with cucumber downy mildew [2] (20 mg/L, Table 1).

As to `CC/C(C)=C/CC(=O)N1CCC(c2nc(C3=NOC(c4c(F)cccc4F)C3)cs2)CC1` (stereo not drawn) [comparative 3], the Control effect entry with cucumber downy mildew [1] (0.625 mg/L) is “E (0% ≤ E < 45%)”; in the test on cucumber downy mildew [1] (2.5 mg/L), “C (60% ≤ C < 75%)”; in the test on cucumber downy mildew [1] (10 mg/L), “A (90% ≤ A ≤ 100%)”.

Take `COC(CC(=O)N1CCC(c2nc(C3=NOC(c4c(F)cccc4F)C3)cs2)CC1)OC` (stereo not drawn) [II-1]: the Control effect entry with cucumber downy mildew [2] (1.25 mg/L, Table 1) was “A (90%≤A≤100%)”; in the test with cucumber downy mildew [2] (5 mg/L, Table 1) it was “A (90%≤A≤100%)”; in the test with cucumber downy mildew [2] (20 mg/L, Table 1), “A (90%≤A≤100%)”.

Consider `Cc1ccc(-c2c(Cl)nc(C#N)n2S(=O)(=O)N(C)C)cc1` [cyazofamid, reference compound], for which the Control effect result was “E (0%≤E<45%)” in the test on cucumber downy mildew [2] (setting [4]), “B (75%≤B<90%)” with cucumber downy mildew [2] (setting [5]), “A (90%≤A≤100%)” in the test with cucumber downy mildew [2] (setting [6]) and “A (90%≤A≤100%)” with cucumber downy mildew [2] (setting [7]).

On to `O=C(CC1OCCO1)N1CCC(c2nc(C3=NOC(c4c(F)cccc4F)C3)cs2)CC1` (stereo not drawn) [II-22], for which the Control effect entry was “D (45%≤D<60%)” in the test with cucumber downy mildew [2] (5 mg/L, Table 1) and “A (90%≤A≤100%)” with cucumber downy mildew [2] (20 mg/L, Table 1).

As for `CO/C=C(/C(=O)N1CCC(c2nc(C3=NOC(c4c(F)cccc4F)C3)cs2)CC1)c1ccc(C)cc1` (stereo not drawn) [Compound I-13], the Control effect entry is on record as “B (75%≤B<90%)” with cucumber downy mildew [2] (5 mg/L, Table 1) and “A (90%≤A≤100%)” in the test with cucumber downy mildew [2] (20 mg/L, Table 1).

With `CO/C=C(\I)C(=O)N1CCC(c2nc(C3=NOC(c4c(F)cccc4F)C3)cs2)CC1` (stereo not drawn) [Compound I-5], the Control effect result in the test on cucumber downy mildew [2] (1.25 mg/L, Table 1) is “C (60%≤C<75%)”; in the test on cucumber downy mildew [2] (5 mg/L, Table 1), “B (75%≤B<90%)”; with cucumber downy mildew [2] (20 mg/L, Table 1), “B (75%≤B<90%)”.

For the molecule `C=CC(=O)N1CCC(c2nc(C3=NOC(c4c(F)cccc4F)C3)cs2)CC1` (stereo not drawn) [Compound I-16], the Control effect result with cucumber downy mildew [2] (1.25 mg/L, Table 1) is reported as “D (45%≤D<60%)”; with cucumber downy mildew [2] (5 mg/L, Table 1), “C (60%≤C<75%)”; in the test with cucumber downy mildew [2] (20 mg/L, Table 1), “B (75%≤B<90%)”.

With `CCO/C=C/C(=O)N1CCC(c2nc(C3=NOC(c4c(F)cccc4F)C3)cs2)CC1` (stereo not drawn) [Compound I-17], the Control effect entry is given as “A (90%≤A≤100%)” in the test on cucumber downy mildew [2] (1.25 mg/L, Table 1); “A (90%≤A≤100%)” in the test on cucumber downy mildew [2] (5 mg/L, Table 1); “A (90%≤A≤100%)” in the test with cucumber downy mildew [2] (20 mg/L, Table 1).

Regarding `CC/C=C/CC(=O)N1CCC(c2nc(C3=NOC(c4c(F)cccc4F)C3)cs2)CC1` (stereo not drawn) [comparative 2], the Control effect entry is “D (45% ≤ D < 60%)” in the test on cucumber downy mildew [1] (0.625 mg/L), “B (75% ≤ B < 90%)” in the test on cucumber downy mildew [1] (2.5 mg/L) and “A (90% ≤ A ≤ 100%)” with cucumber downy mildew [1] (10 mg/L).

As for `CO/C=C(/C(=O)N1CCC(c2nc(C3=NOC(c4c(F)cccc4F)C3)cs2)CC1)c1cc(Cl)ccc1Cl` (stereo not drawn) [Compound I-15], the Control effect result with cucumber downy mildew [2] (5 mg/L, Table 1) is “C (60%≤C<75%)”; in the test on cucumber downy mildew [2] (20 mg/L, Table 1) it was “C (60%≤C<75%)”.

Regarding `O=C(CC1OCCCO1)N1CCC(c2nc(C3=NOC(c4c(F)cccc4F)C3)cs2)CC1` (stereo not drawn) [II-21], the Control effect entry is “D (45%≤D<60%)” in the test on cucumber downy mildew [2] (1.25 mg/L, Table 1); “B (75%≤B<90%)” with cucumber downy mildew [2] (5 mg/L, Table 1); “A (90%≤A≤100%)” in the test on cucumber downy mildew [2] (20 mg/L, Table 1).

In the case of `CO/C=C(/C(=O)N1CCC(c2nc(C3=NOC(c4c(F)cccc4F)C3)cs2)CC1)C(C)C` (stereo not drawn) [Compound I-10], the Control effect entry in the test on cucumber downy mildew [2] (1.25 mg/L, Table 1) is “A (90%≤A≤100%)”; in the test on cucumber downy mildew [2] (5 mg/L, Table 1), “A (90%≤A≤100%)”; in the test with cucumber downy mildew [2] (20 mg/L, Table 1), “A (90%≤A≤100%)”.

Turning to `CCC/C(=C\OC)C(=O)N1CCC(c2nc(C3=NOC(c4c(F)cccc4F)C3)cs2)CC1` (stereo not drawn) [Compound I-9], the Control effect result in the test on cucumber downy mildew [2] (1.25 mg/L, Table 1) is given as “A (90%≤A≤100%)”; in the test with cucumber downy mildew [2] (5 mg/L, Table 1), “A (90%≤A≤100%)”; in the test on cucumber downy mildew [2] (20 mg/L, Table 1), “A (90%≤A≤100%)”.
